Test results as given in patent US20080279924A1, “HLA class I A2 tumor associated antigen peptides and vaccine compositions” (priority 1999, published 2008).

How the values were obtained:
[1] = tested on: PBMC from healthy donors; assay type: cell-based, human
[2] = tested on: HLA-DR molecules; details: cited from earlier work

Substance | antigen concentration at which the 10,000 cpm proliferation level was reached [1] | donors with primary T cell responses [1] | number of DR molecules bound of DR molecules tested [2]
QYIKANSKFIGITE [Epitope 553.01] | about 10,000 ng/ml | 2 out of 3 | seven of 16
aKXVAAWTLKAAa-NH2 [PADRE] |  | all three donors | 
